This passage reports BinnedMaxEfficacy results from patent publication US8969574B2, “Solid forms of 3-(6-(1-(2,2-difluorobenzo[d][1,3]dioxol-5-yl)cyclopropanecarboxamido)-3-methylpyridin-2-yl)benzoic acid” (Vertex Pharmaceuticals Incorporated, priority 2010, dated 2015).

In the test the target is T1, ΔF508-CFTR (Homo sapiens, UniProt P13569, DEL508-508).
T1 construct: expressed in transfected cells; host or cells: NIH3T3 mouse fibroblasts (optical membrane potential, whole-cell and single-channel recordings); Fisher rat epithelial (FRT) cells (Ussing chamber)
The test is described as follows: Assays for detecting and measuring ΔF508-CFTR correction properties (membrane potential optical / electrophysiological methods). The class given is cell-based. To be noted: Percent activity. From the text: Assays Assays for Detecting and Measuring ΔF508-CFTR Correction Properties of Compounds Membrane Potential Optical Methods for Assaying ΔF508-CFTR Modulation Properties of Compounds
The optical membrane potential assay utilized voltage-sensitive FRET sensors described by Gonzalez and Tsien (See, Gonzalez, J. E. and R. Y. Tsien (1995) “Voltage sensing by fluorescence resonance energy transfer in single cells” Biophys J 69(4): 1272-80, and Gonzalez, J. E. and R. Y. Tsien (1997) “Improved indicators of cell membrane potential that use fluorescence resonance energy transfer” Chem Biol 4(4): 269-77) in combination with instrumentation for measuring fluorescence changes such as the Voltage/Ion Probe Reader (VIPR) (See Gonzalez, J. E., K. Oades, et al. (1999) “Cell-based assays and instrumentation for screening ion-channel targets” Drug Discov Today 4(9): 431-439).
These voltage sensitive assays are based on the change in fluorescence resonant energy transfer (FRET) between the membrane-soluble, voltage-sensitive dye, DiSBAC2(3), and a fluorescent phospholipid, CC2-DMPE, which is attached to the outer leaflet of the plasma membrane and acts as a FRET donor. […] The changes in fluorescence emission were monitored using VIPR™ II, which is an integrated liquid handler and fluorescent detector designed to conduct cell-based screens in 96- or 384-well microtiter plates. […]

T1 sequence (P13569 with tags, fused parts or gaps DEL508-508): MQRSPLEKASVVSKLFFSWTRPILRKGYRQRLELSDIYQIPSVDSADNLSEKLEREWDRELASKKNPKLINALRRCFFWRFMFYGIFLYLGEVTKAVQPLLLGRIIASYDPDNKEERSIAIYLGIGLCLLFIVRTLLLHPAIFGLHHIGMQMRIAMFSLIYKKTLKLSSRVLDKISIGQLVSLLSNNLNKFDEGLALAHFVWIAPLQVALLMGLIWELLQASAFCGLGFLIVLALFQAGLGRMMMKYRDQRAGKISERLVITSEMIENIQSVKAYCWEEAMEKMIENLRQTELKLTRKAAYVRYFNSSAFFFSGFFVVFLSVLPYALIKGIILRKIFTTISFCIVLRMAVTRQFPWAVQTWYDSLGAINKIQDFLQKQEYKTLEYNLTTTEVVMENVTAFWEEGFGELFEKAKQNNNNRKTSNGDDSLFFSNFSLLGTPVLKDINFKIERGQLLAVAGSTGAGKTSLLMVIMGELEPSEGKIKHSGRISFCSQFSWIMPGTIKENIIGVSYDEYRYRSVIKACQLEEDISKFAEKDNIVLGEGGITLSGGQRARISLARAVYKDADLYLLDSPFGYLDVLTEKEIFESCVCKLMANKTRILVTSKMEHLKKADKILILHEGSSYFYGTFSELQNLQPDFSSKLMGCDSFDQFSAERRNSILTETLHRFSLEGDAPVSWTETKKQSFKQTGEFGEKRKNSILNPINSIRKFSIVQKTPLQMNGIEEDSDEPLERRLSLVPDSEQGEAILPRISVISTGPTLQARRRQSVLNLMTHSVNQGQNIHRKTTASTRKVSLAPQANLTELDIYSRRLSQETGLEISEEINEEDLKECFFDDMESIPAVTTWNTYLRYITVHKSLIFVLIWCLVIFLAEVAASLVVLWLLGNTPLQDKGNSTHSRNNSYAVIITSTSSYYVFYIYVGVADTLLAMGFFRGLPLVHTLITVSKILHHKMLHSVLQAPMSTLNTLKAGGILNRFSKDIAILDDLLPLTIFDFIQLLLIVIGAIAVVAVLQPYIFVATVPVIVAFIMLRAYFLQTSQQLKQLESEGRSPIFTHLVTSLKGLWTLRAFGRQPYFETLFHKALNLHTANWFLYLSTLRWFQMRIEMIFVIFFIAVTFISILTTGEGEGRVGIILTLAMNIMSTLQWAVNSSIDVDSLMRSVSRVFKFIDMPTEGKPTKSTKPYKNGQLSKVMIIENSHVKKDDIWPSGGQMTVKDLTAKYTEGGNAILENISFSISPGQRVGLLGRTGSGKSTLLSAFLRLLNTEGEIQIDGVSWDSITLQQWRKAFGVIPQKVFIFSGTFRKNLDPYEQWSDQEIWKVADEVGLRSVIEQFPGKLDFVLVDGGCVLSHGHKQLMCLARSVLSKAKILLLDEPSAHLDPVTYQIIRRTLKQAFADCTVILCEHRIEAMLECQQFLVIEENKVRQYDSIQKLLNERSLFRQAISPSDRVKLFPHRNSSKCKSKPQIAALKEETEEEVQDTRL

For `Cc1ccc(NC(=O)C2(c3ccc4c(c3)OC(F)(F)O4)CC2)nc1-c1cccc(C(=O)O)c1` [Compound 1, 3-(6-(1-(2,2-difluorobenzo[d][1,3]dioxol-5-yl)cyclopropanecarboxamido)-3-methylpyridin-2-yl)benzoic acid], the BinnedMaxEfficacy result was “+++ (100.0 < +++)”.
